The results in this text go back to PubChem BioAssay (NCI).

The structures appear in SMILES notation.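 Cultured in 96-well plates, cells were exposed to test compound for 48 hours across five concentrations. TGI marks complete inhibition of growth.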

Common to all, as to assay: growth of human tumour cells (NCI), 48 h
The test system of assay [1] is A498 renal.
Assay [2] has as its system COLO 205 colon.
The subject of assay [3] is EKVX NSCLC.
Assay [4] concerns HS 578T breast.
The test system of assay [5] is HT29 colon.
Assay [6] has as its system PC-3 prostate.
Assay [7] has as its system SF-539 CNS.
The subject of assay [8] is SW-620 colon.
Assay [9] relates to UO-31 renal.
In assay [10] the test system is HOP-92 NSCLC.

As for `Cc1cccc2c1C(=O)[C@@](C)([C@]1(C)Nc3cccc(C)c3C1=O)N2`, the TGI in assay [1], in assay [2], in assay [3], in assay [4], in assay [5] and in [6] was above 100 µM each time. Also, the TGI in [7], in [8] and in [9] was above 100 µM throughout.
Take `OC(O)(C(F)(F)F)C(F)(F)F`: the TGI in assay [1], in assay [2], in [3], in [10], in [4] and in [5] was above 100 µM each time. Moreover, the TGI in assay [6], in assay [7], in assay [8] and in [9] was above 100 µM in each case.
Consider `CC1(C)CC2(C)OC(=N)C1(C#N)C2(C#N)C#N` (stereo unspecified), for which the TGI in [1] is 28.7 µM; in assay [2] it was 14.9 µM; in [3], 19.4 µM; in [10] it was 10.5 µM; in [4], 37.7 µM; in assay [5], 13.4 µM. Besides, the TGI was 30.3 µM in assay [6], 24.5 µM in [7], 11.1 µM in assay [8] and 16.2 µM in [9].
For `C=C1C(=O)O[C@H]2C3C(=C(C)CC[C@@H]12)C(=O)[C@@H]1OC31C` (stereo partly specified), the TGI turned out to be 23.7 µM in [1]; 2.66 µM in assay [2]; 33.2 µM in assay [3]; 10.7 µM in [10]; 9.8 µM in assay [4]; 4.28 µM in assay [5]. Moreover, the TGI in assay [6] amounted to 7.1 µM; in assay [7], 6.75 µM; in assay [8], 2.6 µM; in assay [9], 11.1 µM.
With `Cn1c(=O)c2[nH]c(CCC(=O)O)nc2n(C)c1=O`, the TGI in assay [1], in assay [2], in assay [3], in assay [10], in assay [4] and in assay [5] was above 100 µM throughout. Besides, the TGI in [6], in assay [7], in assay [8] and in assay [9] was above 100 µM throughout.
As for `CN(C)c1ccc(/C=C2\C[C@H]3[C@@H]4CCc5cc(O)ccc5[C@H]4CC[C@]3(C)C2=O)cc1`, the TGI in [1] is above 100 µM; in assay [2], above 100 µM; in assay [3], above 100 µM; in [10] it was above 100 µM; in assay [4], 30.5 µM; in [5], above 100 µM. Moreover, the TGI in assay [6] was above 100 µM; in assay [7], 62.8 µM; in [8], above 100 µM; in assay [9], above 100 µM.
In the case of `O=C(C=P(c1ccccc1)(c1ccccc1)c1ccccc1)c1ccc(-c2ccc(F)cc2F)cc1`, the TGI was 7.41 µM in assay [1]; 3.14 µM in [2]; 11 µM in assay [3]; 7.24 µM in assay [10]; 28.3 µM in assay [4]; 3.94 µM in assay [5]. Moreover, the TGI in assay [6] turned out to be 17.5 µM; in assay [7] it was 10.8 µM; in [8] it was 14.9 µM; in [9], 4.08 µM.
Consider `COC(=O)C(C(=O)OC)C1CC(=O)c2c(Br)sc(Br)c21` (stereo unspecified), for which the TGI in assay [1] was above 100 µM; in [2] it was 28.5 µM; in assay [3], 32.4 µM; in assay [10], 35 µM; in assay [4], 85.7 µM; in [5], 32.9 µM. The TGI in assay [6] was determined as 29 µM; in assay [7] it was 42.6 µM; in assay [8] it was 26.4 µM; in assay [9], 29.5 µM.
As to `COc1cc(-c2[o+]c3cc(O)cc(OC4OC(CO)C(O)C(O)C4O)c3cc2OC2OC(CO)C(O)C(O)C2O)cc(OC)c1O` (stereo unspecified), the TGI in assay [1], in assay [2], in assay [3], in [10], in [4] and in assay [5] was above 100 µM each time. Further, the TGI in assay [6], in [7], in [8] and in [9] was above 100 µM in each case.
On to `COc1cc2c(cc1O)CC[C@@H]1C2CC[C@@]2(C)C1CC[C@@H]2O` (stereo partly specified), for which the TGI was 50.4 µM in assay [1]; 81.3 µM in assay [2]; 44.6 µM in [3]; above 97.9 µM in [10]; 7.63 µM in assay [4]; 64.6 µM in [5]. Moreover, the TGI in assay [6] was above 100 µM; in [7] it was 4.2 µM; in [8], above 100 µM; in assay [9] it was above 94.7 µM.
Regarding `CCOC(=O)c1cc(-c2ccn(C(C)=O)c2)c(-c2cc(C)co2)[nH]1`, the TGI in [1], in [2], in assay [3], in assay [4], in assay [6] and in assay [8] was above 100 µM throughout. This compound also displayed a TGI in assay [9] above 100 µM.
In the case of `Cn1c(=O)c2sc3cc4c(cc3c2c2ccccc21)sc1c(=O)n(C)c2ccccc2c14`, the TGI is above 100 µM in assay [1]; above 100 µM in [2]; above 100 µM in [3]; 99.1 µM in assay [10]; above 100 µM in [4]; above 100 µM in assay [5]. The TGI in assay [6], in [7], in assay [8] and in assay [9] was above 100 µM throughout.
As for `CCOC(=O)CCC(C(=O)OCC)n1nnc2cc(Nc3c(C)[n+]([O-])c4ccc(Cl)cc4[n+]3[O-])ccc21` (stereo unspecified), the TGI in assay [1] was above 100 µM; in [2], above 100 µM; in assay [3], 97.1 µM; in assay [10] it was above 100 µM; in assay [4], above 100 µM; in assay [5], above 100 µM. For the same compound, the TGI in [6], in [7], in assay [8] and in [9] was above 100 µM each time.
